# Measurements from US20220204654A1, “CYCLODEXTRIN SUPRAMOLECULAR SCAFFOLDS AND USES THEREOF” (Massachusetts Institute of Technology, priority 2019, published 2022).
# pKd: −log10 of the molar value.
# Columns and labels:
# [1] = Isothermal titration calorimetry (ITC) glucose binding assay; conditions: ITC binding isotherm, read-out: binding affinity (Kd)
# Experimental: Binding studies were then carried out using isothermal titration calorimetry (ITC) to measure thermodynamic properties during binding. ITC was chosen as the preferred method to confirm binding of glucose as this assay excludes the possibilities of any false positive data. The ITC based binding assay needed significant optimization with respect to macromolecule concentration, choice of buffer, ways of desalting, concentration of the glucose solution, etc.
# [2] = unmodified cyclodextrin with adamantine (AD), comparison statement; cited from earlier work
compound,measurement,setting,value
OCC1O[C@@H]2O[C@@H]3C(CO)O[C@H](O[C@@H]4C5CSCc6ccc(cc6)-c6ccc(cc6)CSCC6O[C@H](O[C@@H]7C(CO)O[C@H](O[C@H]1C(O)C2O)C(O)C7O)C(O)C(O)[C@@H]6O[C@H]1OC(CO)[C@@H](O[C@H]2OC(CO)[C@@H](O[C@@H](O5)C(O)C4O)C(O)C2O)C(O)C1O)C(O)C3O (some centres unmarked) [CDC1],pKd,[1],~2.30
cyclodextrin,dissociation constant,[2],micromolar range
